The results in this text go back to patent US20240245786A1, “SMALL MOLECULE DEGRADERS OF PHOSPHATIDYLINOSITOL-5-PHOSPHATE 4-KINASE TYPE 2 AND USES THEREOF” (DANA-FARBER CANCER INSTITUTE, INC., priority 2020, published 2024).

Some results are limits rather than exact numbers.

Test [1] concerns the target T1, PIP4K2A (Homo sapiens, UniProt P48426).
T1 sequence (P48426 1-406): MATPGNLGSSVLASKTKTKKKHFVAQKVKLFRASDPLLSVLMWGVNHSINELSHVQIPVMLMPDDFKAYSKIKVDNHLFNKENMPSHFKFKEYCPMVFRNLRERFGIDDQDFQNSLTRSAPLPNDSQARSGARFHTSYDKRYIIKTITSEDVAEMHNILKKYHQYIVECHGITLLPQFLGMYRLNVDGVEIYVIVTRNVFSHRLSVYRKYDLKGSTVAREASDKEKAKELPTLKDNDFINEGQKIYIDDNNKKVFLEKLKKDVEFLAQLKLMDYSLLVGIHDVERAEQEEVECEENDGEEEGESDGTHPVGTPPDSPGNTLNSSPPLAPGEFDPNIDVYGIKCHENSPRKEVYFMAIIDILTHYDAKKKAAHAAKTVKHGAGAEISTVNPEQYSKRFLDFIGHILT
Kind of test: IC50 for bifunctional compound 1, PIP4K2A (biochemical binding affinity).

Test [2] addresses T2, PIP4K2B (Homo sapiens, UniProt P78356).
T2 sequence (P78356 1-416): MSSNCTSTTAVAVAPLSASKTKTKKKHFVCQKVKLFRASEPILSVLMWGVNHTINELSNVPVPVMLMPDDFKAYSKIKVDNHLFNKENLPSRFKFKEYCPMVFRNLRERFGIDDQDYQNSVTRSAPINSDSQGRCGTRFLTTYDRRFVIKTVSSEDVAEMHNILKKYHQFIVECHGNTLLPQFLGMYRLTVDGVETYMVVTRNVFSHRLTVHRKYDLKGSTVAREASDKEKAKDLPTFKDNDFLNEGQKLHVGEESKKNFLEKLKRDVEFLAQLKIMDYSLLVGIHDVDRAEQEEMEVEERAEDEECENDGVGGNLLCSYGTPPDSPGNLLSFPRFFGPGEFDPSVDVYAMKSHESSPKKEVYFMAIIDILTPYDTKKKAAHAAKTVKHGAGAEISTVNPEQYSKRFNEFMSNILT
As to the kind of experiment: IC50 for bifunctional compound 1, PIP4K2B (biochemical binding affinity).

The target of test [3] is T3, ETS2 Repressor Factor (ERF) (Homo sapiens, UniProt P50548).
T3 sequence (P50548 1-548): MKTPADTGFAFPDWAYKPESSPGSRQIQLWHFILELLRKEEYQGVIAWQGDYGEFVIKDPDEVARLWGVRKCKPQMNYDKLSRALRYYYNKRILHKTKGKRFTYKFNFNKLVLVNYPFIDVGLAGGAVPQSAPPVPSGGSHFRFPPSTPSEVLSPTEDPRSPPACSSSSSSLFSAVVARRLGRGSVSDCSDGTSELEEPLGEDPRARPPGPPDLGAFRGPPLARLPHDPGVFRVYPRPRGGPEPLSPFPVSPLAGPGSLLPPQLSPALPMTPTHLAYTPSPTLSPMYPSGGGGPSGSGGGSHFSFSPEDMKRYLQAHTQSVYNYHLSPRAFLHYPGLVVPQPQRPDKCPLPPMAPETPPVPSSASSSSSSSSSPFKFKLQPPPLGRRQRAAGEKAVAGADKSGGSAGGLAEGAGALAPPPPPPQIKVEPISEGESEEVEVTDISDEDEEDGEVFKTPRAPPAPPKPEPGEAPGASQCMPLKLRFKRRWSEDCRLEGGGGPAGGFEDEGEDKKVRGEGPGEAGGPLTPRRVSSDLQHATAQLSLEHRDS
Kind of test: Proteomics analysis (TMT LC-MS3) of Molt4 cells, ERF. The settings on record: 1 μM, 5 h.
Protocol: (§1) Molt4 cells were treated with DMSO or the indicated compound for 5 h, and cells were harvested by centrifugation. […] The homogenized sample was clarified by centrifugation at 20,000×g for 10 min at 4° C. A micro-BCA assay (Pierce™) was used to determine the final protein concentration in the cell lysate. […] Proteins were precipitated using methanol/chloroform. In brief, four volumes of methanol were added to the cell lysate, followed by one volume of chloroform, and finally three volumes of water. The mixture was vortexed and centrifuged at 14,000×g for 5 min to separate the chloroform phase from the aqueous phase. […] The sample channels were combined in a 1:1:1:1:1:1:1:1:1:1 ratio, desalted using C18 solid phase extraction cartridges (Waters®) and analyzed by liquid chromatography-mass spectrometry (LC-MS) for channel ratio comparison. Samples were then combined using the adjusted volumes determined in the channel ratio analysis and dried down in a speed vacuum. […]
(§2) Proteome Discoverer™ 2.2 (Thermo Fisher) was used for RAW file processing and controlling peptide and protein level false discovery rates, assembling proteins from peptides, and protein quantification from peptides. […] TMT reporter ion intensities were measured using a 0.003 Da window around the theoretical m z for each reporter ion in the MS3 scan. […]

Test [4] has as its target T1, PIP4K2A. Kind of test: Proteomics analysis (TMT LC-MS3) of Molt4 cells, PIP4K2A abundance. Conditions: 1 μM, 5 h.
Protocol: as §1, §2
For test [5], the target named is T2, PIP4K2B. Kind of test: Proteomics analysis (TMT LC-MS3) of Molt4 cells, PIP4K2B abundance. Conditions: 1 μM, 5 h.
Protocol: as §1, §2
In test [6] the target is T3, ETS2 Repressor Factor (ERF). As to the kind of experiment: Immunoblot of ERF degradation in Molt4 cells (FIG. 1D). The settings on record: 6 h or 8 h. On the set-up: immunoblot of PIP4K2A, PIP4K2B, PIP4K2C, and ERF degradation in Molt4 cells; endogenous in cells; host or cells: Molt4. Type of test: cell-based. As for the experimental part:
Molt4 cells were treated with the indicated compounds for the indicated time in FIG. 1A-FIG. 1F and FIG. 3A-FIG. 3B. Cells were lysed in M-PER™ buffer (Thermo Scientific) containing protease/phosphatase inhibitor cocktail (Roche®). Protein concentration was measured using a bicinchoninic acid (BCA) assay (Pierce™). Equivalent amounts of each sample were loaded on 4-12% Bis-Tris gels (Invitrogen™), transferred to nitrocellulose membranes, and immunoblotted with antibodies against the indicated proteins. IRDye®800-labeled goat anti-rabbit IgG and IRDye®680-labeled goat anti-mouse IgG (LI-COR®) secondary antibodies were purchased for LI-COR®, and membranes were detected on an Odyssey® detection system (LI-COR® Biosciences).
(In general: A western blot detects proteins with antibodies after separation by electrophoresis.)

Regarding `Cc1ncsc1-c1ccc([C@H](C)NC(=O)C2C[C@@H](O)CN2C(=O)[C@@H](NC(=O)CCCCC(=O)Nc2ccc(C(=O)Nc3cccc(Nc4cc(-c5c[nH]c6ccccc56)ncn4)c3)cc2)C(C)(C)C)cc1` (stereo partly drawn) [Compound 1, N1-(4-((3-((6-(1H-indol-3-yl)pyrimidin-4-yl)amino)phenyl)carbamoyl)phenyl)-N6-((2S)-1-((4R)-4-hydroxy-2-(((S)-1-(4-(4-methylthiazol-5-yl)phenyl)ethyl)carbamoyl)pyrrolidin-1-yl)-3,3-dimethyl-1-oxobutan-2-yl)adipamide], the concentration for half-maximal inhibition (IC50) (usually the point on the concentration scale where inhibition reaches its midpoint) in test [1] is over 10 µM; in test [2] it was 14 µM. Besides, in test [3], the “ERF degradation, validation by proteomics analysis” value is recorded as “not validated as a confirmed degraded protein”. Further, the “change in abundance of PIP4K2A (proteomics)” value in test [4] is “no detectable change in abundance”. The “change in abundance of PIP4K2B (proteomics)” value in test [5] is on record as “no detectable change in abundance”. Further, the “ERF degradation, as seen in FIG. 1D” value in test [6] is “scored as a potential degraded protein”.
